Patent publication US11364211B2, “Methods for selecting phosphatase selective and non-selective phosphatase inhibitors” (MEDICAL RESEARCH COUNCIL, priority 2015, dated 2022)
Entries after “also recorded” stand apart in the source; their conditions may differ.

Columns and labels:
PP1c = PP1c (Homo sapiens, UniProt P36873); assay: SPR binding to PP1c alone immobilized on chip
Description: The streptavidin coated surface was activated by 1 minute injection with a solution of 50 mM NaOH and 1 M NaCl three times at a flow rate of 10 μl/min. bio-GBZ or bio-PP1c was diluted in the running buffer (50 mM Tris pH 7.5, 100 mM NaCl, 0.1 mM EGTA, 0.05% Tween 20, 0.1% DMSO) and injected at approximately 300 nM concentration at a flow rate of 10 μl/min directly to streptavidin coated surface to reach immobilization level of bio-GBZ or bio-PP1c corresponding to ˜200 and 6000 RU, respectively. A blank immobilization was performed for one of the SA sensor chip surface to use as a reference.
With minor deviations, the same procedure and conditions were used in all binding experiments. Small molecules were stored as 50 mM stock solutions in 100% DMSO. Prior to determining binding constants, serial dilutions of either 12 or 8 concentrations of the compounds were prepared in the running buffer in a 96-well plate. […] This was followed by 1 minute stabilization period, to wash off any unspecific binding. Then, without regenerating the surface, the compound dilution series was injected onto the surface of the chip at a flow rate of 30 μl/min for 1 minute, followed by 2 minutes dissociation time. […]
Kinetic experiments are carried out using different concentrations of the compound and their respective equilibrium binding levels determined.

R15A [1] = molecular target: T1, R15A (Homo sapiens, UniProt O75807); assay: SPR of recombinant R15A binding to immobilized bio-GBZ; settings: isolated R15A fragment, compound immobilized on chip
T1 construct: the cDNAs encoding amino acids 325-636 of PPP1R15A; MBP (N); His (C); made in house; host or cells: E. coli BL21-Gold
Description: (§1) B. SPR sensorgrams of R15A and R15B binding to bio-GBZ immobilized on the SPR sensor chip surface. R15A/B concentration=0.0244-12.5 μM.
(§2) Here we set out to develop a generalizable strategy to identify new selective phosphatase inhibitors. First, we expressed and purified R15A and R15 B (FIG. 12) and used surface plasmon resonance (SPR) to measure binding affinities of known R15A inhibitors to their targets. We tried to immobilized R15 on SPR chip but this method produced inconsistent results, probably because the natively unstructured proteins precipitate on the chip. We therefore used biotynilated guanabenz (GBZ) (7) that we immobilized on the chip and tested binding of the proteins on the immobilized compound (FIGS. 13A and 13B).
(§3) A Biacore T200 (GE Healthcare) system was used for all experiments and biotinylated GBZ (bio-GBZ) (Tsaylter 2011) or bio-PP1 was captured on a Sensor Chip SA (GE Healthcare). […]

R15A [2] = assay: as above; design: species or system human; settings: immobilized biotinylated GBZ
Description: as §1, §2, §3

HeLa cells = assay: Cytoprotection from tunicamycin ER stress (WST-8 cell viability); type: cell-based, human; settings: Tunicamycin 2.5 ug/ml, 0.2-5 μM compound
Description: Cells were plated in 24-well plates at a density of 15,000 (HeLa) or 12,000 cells/ml (MEFs) 24 hours prior to treatment. ER stress was elicited by addition of fresh media containing 2.5 μg/ml tunicamycin (Sigma-Aldrich). Compounds of Example 1 were dissolved in DMSO and added as indicated. DMSO was used as a mock treatment. Cell viability was assessed by measuring the reduction of WST-8 [2-(2-methoxy-4-nitrophenyl)-3-(4-nitrophenyl)-5-(2,4-disulfophenyl)-2H-tetrazolium] into formazan using Cell viability Counting Kit-8 (Dojindo) according to the supplier's recommendation, 48 hours after tunicamycin treatment.
Cells where stressed with Tunicamycin (2.5 ug/ml) in the presence of 0.2-5 μM of a compound of Example 1. Cell viability was measured 3 days after treatment.
Cytoprotection against ER stress can be measured by a suitable assay. In this instance, cytoprotection was measured in HeLa cells in which ER stress was elicited by the addition of media containing tunicamycin, a drug that blocks N-glycosylation, thereby preventing protein folding and inducing the unfolded protein response. Cell viability was then detected in the presence and absence of a compound of Example 1 after a set period of time, by measuring the reduction of WST-8 into formazan using the standard cell viability kit Cell Viability Counting Kit-8 from Dojindo. […]

[3] = Tissue distribution in mice after oral gavage; type: in vivo, mouse
Description: Pharmacokinetics studies were performed by XenoGesis. TST3 was administrated orally in C57BL/6J males. Plasma samples were prepared by protein precipitation with methanol containing internal standards. Tissues were weighed and prepared by homogenisation (1:3 in phosphate buffered saline) and protein precipitated with methanol containing internal standard. Following the addition of methanol, plasma and tissue samples were placed at −20° C. for 1 hour (or overnight) to allow proteins to precipitate. The samples were then centrifuged at 2,500×g (3,400 rpm) for 20 minutes at 4° C. The supernatants were analysed by LC-MS/MS.

PPP1R15A = assay: Induction of PPP1R15A in mouse brain (qPCR); type: in vivo; settings: mice, indicated doses
Description: RNA from brain was extracted in trizol (Life Technologies). RNA concentration was measured using a NANODROP1000 spectrophotometer (Thermo Fisher Scientific), and 1 μg was reverse transcribed to cDNA using a SuperScript reverse transcriptase (Life Technologies). Quantitative PCR with primers GAPDH (f): […], GAPDH (r): […], PPP1R15A (f): […];
and PPP1R15A (r): […] was performed using SYBR® Select Master Mix (Ref 4472908, applied biosystems) on a Corbett Rotor-Gene version 6000. Expression of each gene was normalized to the housekeeping gene GAPDH and expressed as fold change calculated using Paffl equation.
PPP1R15A induction was assessed by qPCR on total mRNA extracted from brains of mice treated with the indicated doses of compound of Example 1.

db/db mice = assay: Blood glucose in obese db/db mice; type: in vivo, mouse; settings: 1 mg/kg once a day for three weeks
Description: For treatment of a metabolic disorder, Db/db animals (n=5 per condition) were treated once a day with 1 mg/kg of compound of Example 1 for three weeks. Blood glucose levels were measured with a blood glucose meter (DSI) between 9 and 10 am. Data are mean +/− S.e.m.

Chain of PP1c (P36873 whole entry): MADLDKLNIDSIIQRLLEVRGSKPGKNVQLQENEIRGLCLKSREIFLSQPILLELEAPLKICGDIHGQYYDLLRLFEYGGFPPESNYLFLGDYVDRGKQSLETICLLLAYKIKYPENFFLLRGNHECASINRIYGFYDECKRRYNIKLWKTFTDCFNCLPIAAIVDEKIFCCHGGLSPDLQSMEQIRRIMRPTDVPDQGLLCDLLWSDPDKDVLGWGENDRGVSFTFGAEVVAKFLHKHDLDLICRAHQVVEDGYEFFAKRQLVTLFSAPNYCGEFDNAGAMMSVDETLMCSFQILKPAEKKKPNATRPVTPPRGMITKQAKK
T1 sequence (O75807 325-636, stated change not applied): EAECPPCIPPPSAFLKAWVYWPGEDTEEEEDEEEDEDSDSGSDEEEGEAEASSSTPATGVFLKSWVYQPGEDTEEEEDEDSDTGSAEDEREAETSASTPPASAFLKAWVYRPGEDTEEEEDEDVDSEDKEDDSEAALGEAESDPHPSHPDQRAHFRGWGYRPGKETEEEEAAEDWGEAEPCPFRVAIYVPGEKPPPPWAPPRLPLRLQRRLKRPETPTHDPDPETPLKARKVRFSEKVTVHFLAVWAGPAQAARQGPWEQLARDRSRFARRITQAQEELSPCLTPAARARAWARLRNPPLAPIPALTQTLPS

| binding to PP1c alone (in words) (PP1c) | Kd (R15A [1]) [µM] | affinity for recombinant R15A fragment relative to R15B (R15A [2]) | Structure (SMILES) | protection of cells from tunicamycin stress (cell viability) (HeLa cells) | tissue distribution (plasma, brain, spinal cord, pancreas, liver) [3] | induction of PPP1R15A mRNA in brain (PPP1R15A) | blood glucose (db/db mice) |
| --- | --- | --- | --- | --- | --- | --- | --- |
| not to PP1c alone | 11 | ten times higher affinity | N=C(N)N/N=C/c1c(Cl)cccc1Cl [Guanabenz, reference compound] | – | – | – | – |
| – | – | – | [H]/N=C(\N)NN=Cc1cccc(Cl)c1Cl [Example 1, (E)-2-(2,3-dichlorobenzylidene)hydrazine-1-carboximidamide] | protects cells from cytotoxic ER stress | good tissue distribution; also recorded: extensive tissue distribution | induced PPP1R15A; also recorded: induction of R15A | ameliorate a metabolic disorder; also recorded: reduced the pathological high blood glucose |
